Results on four compounds are retold here after patent publication US8637672B2 (Deciphera Pharmaceuticals, LLC, priority 2010, dated 2014).

Molecules are shown by their SMILES.

One assay concerns the target VEGFR-2 (KDR kinase) (Homo sapiens, UniProt P35968, DEL940-989/E990V). Briefly: KDR Kinase Assay (VEGFR-2). It is filed as biochemical. As to conditions: for IC50: methods of the Biological Data section; for Fold Selectivity VEGFR-2/MET: ratio VEGFR-2 IC50 / MET IC50. On the procedure:
The activity of KDR kinase was determined by following the production of ADP from the kinase reaction through coupling with the pyruvate kinase/lactate dehydrogenase system (e.g., Schindler et al. Science 2000, 289, pp. 1938-1942). In this assay, the oxidation of NADH (thus the decrease at A340 nm) was continuously monitored spectrophotometrically. The reaction mixture (100 μl) contained KDR (Seq ID No. 3, 1.5 nM to 7.1 nM, nominal concentration), polyE4Y (1 mg/mL), pyruvate kinase (3.5 units), lactate dehydrogenase (5.5 units), phosphoenolpyruvate (1 mM), and NADH (0.28 mM) in 60 mM […] buffer containing 0.13% octyl-glucoside, 13 mM MgCl2, 6.8 mM DTT, and 3.5% DMSO at pH 7.5. The reaction was initiated by adding ATP (0.2 mM, final concentration). The absorption at 340 nm was continuously monitored for 3 h at 30° C. on a Polarstar Optima plate reader (BMG) or instrument of similar capacity. The reaction rate was calculated using the 1 h to 2 h time frame. Percent inhibition was obtained by comparison of reaction rate with that of a control (i.e., with no test compound). IC50 values were calculated from a series of percent inhibition values determined at a range of inhibitor concentrations using software routines as implemented in the GraphPad Prism software package.
KDR kinase assay K2 is the same as for assay K1 except that (1) a nominal concentration of 2.1 nM of enzyme was employed (2) the reaction was pre-incubated at 30° C. for 2 h prior to initiation with ATP and (3) 1.0 mM ATP (final concentration) was used to initiate the reaction.
KDR kinase assay K3 is the same as for assay K1 except that (1) a nominal concentration of 1.1 nM of enzyme was employed, (2) the buffer components per 100 μl reaction mixture were as follows: 75 mM Tris buffer containing 0.066% octyl-glucoside, 17 mM MgCl2, and 1% DMSO at pH 7.5, (3) the final concentration of DTT was 0.66 mM, (4) the reaction was pre-incubated at 30° C. for 1 h prior to initiation with ATP, and (5) 1.0 mM ATP (final concentration) was used to initiate the reaction.

The target of another assay is T1, VEGFR-1 (FLT1 kinase) (Homo sapiens, UniProt P17948).
T1 construct: GST tagged recombinant human FLT1, amino acids 781-1338; GST; host or cells: insect cells
T1 sequence (P17948 781-1338): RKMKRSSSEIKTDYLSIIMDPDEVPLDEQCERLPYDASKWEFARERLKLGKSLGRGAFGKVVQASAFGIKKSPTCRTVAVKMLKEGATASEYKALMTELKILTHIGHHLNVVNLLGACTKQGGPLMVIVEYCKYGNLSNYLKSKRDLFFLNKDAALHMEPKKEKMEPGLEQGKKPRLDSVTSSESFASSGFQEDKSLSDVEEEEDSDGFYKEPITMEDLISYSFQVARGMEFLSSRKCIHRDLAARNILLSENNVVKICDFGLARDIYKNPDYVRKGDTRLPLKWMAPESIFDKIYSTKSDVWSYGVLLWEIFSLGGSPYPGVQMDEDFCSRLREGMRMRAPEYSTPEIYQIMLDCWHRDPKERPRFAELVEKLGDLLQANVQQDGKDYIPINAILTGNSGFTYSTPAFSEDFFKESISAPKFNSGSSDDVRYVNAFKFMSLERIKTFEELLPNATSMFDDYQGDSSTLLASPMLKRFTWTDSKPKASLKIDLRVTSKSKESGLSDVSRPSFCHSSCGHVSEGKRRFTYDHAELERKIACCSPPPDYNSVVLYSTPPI
The experiment in a line: FLT1 Kinase Assay (VEGFR-1). It is filed as biochemical. As to conditions: for IC50: methods of the Biological Data section; for Fold Selectivity VEGR-1/MET: ratio VEGFR-1 IC50 / MET IC50. The protocol: Activity of FLT1 kinase was determined by a radioactive filtration binding assay where incorporation of ^33P from ^33P-γ-ATP to the substrate is measured. In this assay, detection of ^33P was indicative of FLT1 phosphorylation activity which was directly proportional to the amount of phosphorylated peptide substrate poly[Glu:Tyr] (4:1). Initially, the reaction mixture contained: 400 nM FLT1, 20 mM HEPES, pH 7.5, 10 mM MgCl2, 2 mM MnCl2, 1 mM EGTA, 0.02% Brij 35, 0.02 mg/mL BSA, 0.1 mM Na3VO4, and 2 mM DTT. The reaction mixture was incubated with compound at room temperature for 30 minutes. To initiate the reaction, an equal volume of 20 μM ATP and 0.2 mg/mL peptide substrate were added and then incubated at room temperature for 2 hours. The final assay conditions were: 200 nM FLT1, 10 μM ATP, 0.1 mg/ml, substrate 20 mM HEPES, pH 7.5, 10 mM MgCl2, 1 mM EGTA, 0.02% Brij 35, 0.02 mg/mL BSA, 0.1 mM Na3VO4, 2 mM DTT, and 1% DMSO. IC50 values were calculated from a series of % Activity values determined at a range of inhibitor concentrations using software routines as implemented in the Graph Pad Prism software package.
GST tagged recombinant human FLT1, amino acids 781-1338. Expressed in insect cells.

Sequence of VEGFR-2 (KDR kinase) (P35968 with tags, fused parts or gaps DEL940-989/E990V): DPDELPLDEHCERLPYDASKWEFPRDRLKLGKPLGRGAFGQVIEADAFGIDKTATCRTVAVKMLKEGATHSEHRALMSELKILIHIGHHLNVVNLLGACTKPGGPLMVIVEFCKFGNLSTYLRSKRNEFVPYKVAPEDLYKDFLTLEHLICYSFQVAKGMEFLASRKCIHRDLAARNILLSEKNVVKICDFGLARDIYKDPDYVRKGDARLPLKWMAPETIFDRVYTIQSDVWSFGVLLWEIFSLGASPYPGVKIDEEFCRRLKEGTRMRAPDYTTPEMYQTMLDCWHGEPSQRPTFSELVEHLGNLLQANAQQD

What is called IC50 is the point on the concentration scale where inhibition reaches its midpoint. For `CC(=O)Nc1cc(Oc2ccc(NC(=O)C3(C(=O)Nc4ccc(F)cc4)CC3)c(F)c2)ccn1` [Compound E, N-(4-(2-acetamidopyridin-4-yloxy)-2-fluorophenyl)-N′-(4-fluorophenyl)cyclopropane-1,1-dicarboxamide], on VEGFR-2 (KDR kinase), half-maximal inhibition (IC50) required 122 nM and the “Fold Selectivity VEGFR-2/MET” value amounted to 4.69. In addition, on VEGFR-1 (FLT1 kinase), half-maximal inhibition (IC50) was put at 160 nM and the “Fold Selectivity VEGR-1/MET” value was 6.15.

Consider `CC(=O)Nc1cc(Oc2cc(F)c(NC(=O)C3(C(=O)Nc4ccc(F)cc4)CC3)cc2F)ccn1` [Compound D, N-(4-(2-acetamidopyridin-4-yloxy)-2,5-difluorophenyl)-N′-(4-fluorophenyl)cyclopropane-1,1-dicarboxamide], for which, on VEGFR-2 (KDR kinase), 52 nM corresponded to half-maximal inhibition (IC50) and the “Fold Selectivity VEGFR-2/MET” value was 13. At VEGFR-1 (FLT1 kinase), the IC50 came to 79 nM and the “Fold Selectivity VEGR-1/MET” value stood at 19.75.

With `O=C(Nc1cc(Oc2cc(F)c(NC(=O)C3(C(=O)Nc4ccc(F)cc4)CC3)cc2F)ccn1)N1CC(CO)C1` [Compound H], the “Fold Selectivity VEGFR-2/MET” value at VEGFR-2 (KDR kinase) is 2.5. Moreover, the “Fold Selectivity VEGR-1/MET” value on VEGFR-1 (FLT1 kinase) is listed as 3.5.

`CN1CCN(C2CCN(C(=O)Nc3cc(Oc4cc(F)c(NC(=O)C5(C(=O)Nc6ccc(F)cc6)CC5)cc4F)ccn3)CC2)CC1` [Compound G]: the “Fold Selectivity VEGFR-2/MET” value on VEGFR-2 (KDR kinase) was determined as 2.13. The “Fold Selectivity VEGR-1/MET” value on VEGFR-1 (FLT1 kinase) was 0.45.
